Laboratory results from US9120776B2, “Condensed heterocyclic compound” (Takeda Pharmaceutical Company Limited, priority 2011, dated 2015).

Columns and labels:
Th17 cells [1] = assay: Mouse Th17 Cell Differentiation Test (IL-17A in culture supernatant, ELISA); type: cell-based; details: inhibitory rate at 10 μM of test compound; mouse CD4 positive naive T cells, 4 days, IL-17A by ELISA; 10 µM
Experimental: CD4 positive naive T cells were collected from the spleen cells of BALB/c mice (female, 8-11w, Charles River Laboratories Japan, Inc.) using CD4+CD62L+ T Cell Isolation kit II (Miltenyi Biotec). The CD4 positive naive T cells in a 96 well plate (3×10^5 cells/well) were stimulated (37° C. for culture) with anti-mouse CD3ε antibody (Bio X cell) (10 μg/mL, solid phase) and anti-CD28 antibody (Bio X cell) (5 μg/mL) for 4 days in the presence of anti-IFN-γ antibody (BioLegend), anti-IL-4 antibody (BioLegend), anti-IL-2 antibody (BioLegend), IL-6, TGF-β and IL-23 to differentiate into Th17 cells. The compound was dissolved in DMSO and then added thereto. The cells were cultured under these conditions for 4 days, and differentiation of the Th17 cells was evaluated by using the concentration of IL-17A, which was measured by ELISA, in the culture supernatant obtained by centrifugation.

IFN-γ gene expression = IFN-γ gene expression induced by anti-CD3 antibody stimulation in mouse colon; type: in vivo; details: 30, 100 and 300 mg/kg, po, Balb/c mice
Experimental: (§1) An anti-CD3 antibody (5 μg/500 μL/mouse, BioXcell) or saline (500 μL/mouse) was intraperitoneally administered to Balb/c mice (female, 8 weeks old). Three hours after the administration, the mice were anesthetized by ether inhalation, and euthanized by cervical spine fracture dislocation. Then, the mice underwent laparotomy, and colons were isolated. The obtained colons were washed with saline, and then, immersed in RNA stabilization buffer (RNAlater, QIAGEN) at 4° C. for 18 hours or longer. Meanwhile, a suspension of a compound in 0.5% methylcellulose was orally administered an hour before administration of anti-CD3 antibody.
The colon tissues were retrieved from RNAlater, and immediately immersed in 5 mL of RLT buffer (RNeasy Mini Kit, QIAGEN). Then, the tissues were homogenized at room temperature. Total RNA was extracted from the homogenized solution in accordance with the protocol of RNeasy Mini Kit (QIAGEN), and cDNA was prepared using high capacity RNA-to-cDNA Kit (Applied biosystems). mRNAs of various cytokines were detected by realtime-PCR (TaqMan PCR) using the obtained cDNA as a template. […] The expression levels of each gene were shown as normalized values calculated using β-actin expression level. […]

IL-17A gene expression [2] = assay: IL-17A gene expression in lymph node of EAE rat model; type: in vivo; details: 30, 100 and 300 mg/kg, po twice a day; EAE-sensitized Lewis rat, 5th day
Experimental: A killed Mycobacterium tuberculosis, H37Ra (DIFCO), was suspended at the concentration of 2 mg/mL in Freund Incomplete adjuvant (DIFCO), and 5 mg of MBP (Sigma) was dissolved in 1.25 mL of saline (Otsuka). These two solutions were mixed at the ratio of 1:1 using glass syringe with a three-way stopcock until emulsion was obtained. The emulsion was intracutaneously administered to the bottom of the right foot of Lewis rats (male, 7 weeks old) at 0.1 mL/rat.
A suspension of the compound of Example 14 in 0.5% methylcellulose was orally administered twice a day from the day of sensitization at the dose of 30, 100 or 300 mg/kg. The last administration was performed on the 5th day after sensitization, and an autopsy was performed 4 hours after the last administration.
The autopsy was performed on the 5th day after the sensitization, and popliteal lymph nodes of the right leg were collected. […] The synthesized cDNA was detected by PCR reaction using Taqman Gene Expression Master Mix (Applied Biosystems) and 7900HT Fast realtime PCR system (Applied Biosystems) (Stage 1: 50° C., 2 min, Stage 2: 95° C., 10 min, Stage 3: 95° C., 15 sec, 60° C., 1 min, 40 cycle). […]

Th17 cells [3] = assay: Human Th17 Cell Differentiation Test (IL-17A in culture supernatant, ELISA); type: cell-based; details: 144 h; inhibitory rate at 10 μM of test compound; human CD4 positive naive T cells, 6 days, IL-17A by ELISA
Experimental: CD4 positive naive T cells were isolated from peripheral blood mononuclear cells (PBMC) collected from human peripheral blood by a density gradient centrifugation method. The CD4 positive naive T cells were seeded in a 96 well plate (2×10^4 cells/well), and stimulated (37° C. for culture) with anti-CD 3/28Ab Dynabeads (Invitrogen) for 6 days in the presence of IL-1β, IL-6, IL-23, TGFβ, anti-IFNγ Ab (BioLegend) and anti-IL-4 Ab (BioLegend) to differentiate into Th17 cells. The compound was dissolved in DMSO and then added thereto. After culture for 6 days, the concentration of IL-17A in the culture supernatant obtained by centrifugation was measured by ELISA to evaluate differentiation of the Th17 cells.

IL-17A gene expression [4] = assay: IL-17A gene expression induced by anti-CD3 antibody stimulation in mouse colon; type: in vivo; details: po, Balb/c mice
Experimental: as §1
The colon tissues were retrieved from RNAlater, and immediately immersed in 5 mL of RLT buffer (RNeasy Mini Kit, QIAGEN). Then, the tissues were homogenized at room temperature. Total RNA was extracted from the homogenized solution in accordance with the protocol of RNeasy Mini Kit (QIAGEN), and cDNA was prepared using high capacity RNA-to-cDNA Kit (Applied biosystems). mRNAs of various cytokines were detected by realtime-PCR (TaqMan PCR) using the obtained cDNA as a template. TaqMan universal master mixII (Applied biosystems) was used as PCR buffer, and TaqMan Gene Expression Assays (Applied biosystems): Mm00439619_m1 (IL-17A), Mm00801778 m1 (IFN-γ) and 43252341E (β-actin) were used for detection of each cytokine gene, respectively. The expression levels of each gene were shown as normalized values calculated using β-actin expression level.
All the data were shown as mean values±SE. Statistical analyses were performed by Student's t test and William's test.

human PBMC = assay: IL17 Production Test in Human PBMC; type: cell-based; details: 72 h, inhibitory rate at 10 μM of test compound, anti-CD3/CD28 stimulation, 3 days, IL-17A by ELISA
Experimental: Peripheral blood mononuclear cells (PBMC) collected from human peripheral blood by a density gradient centrifugation method were stimulated by Dynabeads (registered trade mark; anti-CD3/CD28 antibody) and cultured at 37° C. for 3 days. The compound was dissolved in DMSO and then added thereto. After culture for 3 days under such conditions, the concentration of IL-17A in the culture supernatant obtained by centrifugation was measured by ELISA to evaluate the effect of the compound on IL-17 production.

CCn1c2ccccc2c2cc(NC(=O)CC(C)CC(=O)Nc3ccc(C#N)c(Cl)c3)ccc21 (centres unmarked) [Example 14, N-(3-chloro-4-cyanophenyl)-N′-(9-ethyl-9H-carbazol-3-yl)-3-methylpentanediamide]
inhibitory rate (%) (Th17 cells [1]): 96.0% | effect on IFN-γ expression (IFN-γ gene expression): did not affect IFN-γ expression | effect on increase in IL-17A gene expression in lymph node (IL-17A gene expression [2]): tended to suppress the increase in IL-17A gene expression | inhibition at 10 µM (Th17 cells [3]): 99.3% | inhibition rate of IL-17A expression (IL-17A gene expression [4]; 30 mg/kg): 10% | inhibition rate of IL-17A expression (IL-17A gene expression [4]; 100 mg/kg): 25% | inhibition rate of IL-17A expression (IL-17A gene expression [4]; 300 mg/kg): 53% | inhibition at 10 µM (human PBMC): 95%
